In patent US6531314B1, “Growth hormone secretagogue receptor family” (Merck & Co., Inc., priority 1998, dated 2003):

Legend:
[1] = biological target: T1, swine growth hormone secretagogue receptor (Type I, clone 7-3) (Sus scrofa, UniProt Q95254); test: aequorin bioluminescence assay in Xenopus oocytes; format: cell-based; design: bioluminescence response: dose or concentration left out as unconfirmed
Method: (§1) Xenopus laevis oocytes were isolated and injected using standard methods previously described by Arena, et al., 1991, Mol. Pharmacol. 40, 368-374, which is hereby incorporated by reference. Adult female Xenopus laevis frogs (purchased from Xenopus One, Ann Arbor, Mich.) were anesthetized with 0.17% tricaine methanesulfonate and the ovaries were surgically removed and placed in a 60 mm culture dish (Falcon) containing OR-2 medium without calcium (82.5 mM NaCl, 2 mM KCl, 2.5 mM sodium pyruvate, 1 mM MgCl2, […] penicillin, 1 mg/ml streptomycin, 5 mM HEPES, pH=7.5; ND-96 from Specialty Media, N.J.). Ovarian lobes were broken open, rinsed several times, and oocytes were released from their sacs by collagenase A digestion (Boehringer-Mannheim; 0.2% for 2-3 hours at 18° C.) in calcium-free OR-2. […]
(§2) The ABA requires injection of library pool cRNA (25 ng/egg for pool sizes of 500 to 10,000) with aequorin cRNA (2 ng/egg) supplemented with the G-protein alpha subunit Ga11 (2 ng/egg). […] Polymerase chain reaction (PCR) was utilized to generate a DNA fragment corresponding to the open reading frame (ORF) of the aequorin cDNA with an optimized Kosak translational initiation sequence (Inouye, S. et. ul., 1985, Proc. Natl. Acad. Sci. USA 82:3154-3158). […]

[2] = biological target: T2, rat GHSR type Ia (Rattus norvegicus, UniProt O08725); test: aequorin bioluminescence in transfected 293-AEQ17 reporter cells; format: cell-based; settings: rat GHSR ORF construct in 293-AEQ17 cells; three replicate samples (FIG. 26)
T2 construct: Met-1 to Val-260 with EcoRI (5′) and HpaI (3′) restriction sites appended, while a carboxyl-terminal fragment was generated from Lys-261 to Thr-364; expressed in transfected cells; host or cells: 293-AEQ17 (HEK-293 aequorin reporter line), transient lipofectamine transfection of the pSV7 ORF construct
Method: Functional activity of the ORF construct was assessed by transfecting (using lipofectamine; GIBCO/BRL) […] of plasmid DNA into the aequorin expressing reporter cell line (293-AEQ17) cultured in 60 mm dishes. Following approximately 40 hours of expression the aequorin in the cells was charged for 2 hours with coelenterazine, the cells were harvested, washed and pelleted by low speed centrifugation into luminometer tubes. Functional activity was determined by measuring Compound A dependent mobilization of intracellular calcium and concomitant calcium induced aequorin bioluminescence.

[3] = biological target: T3, human growth hormone secretagogue receptor (Type I) (Homo sapiens, UniProt Q92847); test: aequorin bioluminescence assay in Xenopus oocytes; format: cell-based; settings: human Type I cRNA expressed in oocytes; responded to concentrations ranging from 1 mM to as low as 0.1 nM
T3 construct: expressed in transfected cells; host or cells: Xenopus laevis oocytes injected with cRNA, together with aequorin and G-alpha-11 cRNA
Method: as §1, §2

[4] = biological target: T1, swine growth hormone secretagogue receptor (Type I, clone 7-3); test: 35S-Compound A binding assay, membranes of COS-7 cells transfected with clone 7-3

T1 sequence (Q95254 65-366): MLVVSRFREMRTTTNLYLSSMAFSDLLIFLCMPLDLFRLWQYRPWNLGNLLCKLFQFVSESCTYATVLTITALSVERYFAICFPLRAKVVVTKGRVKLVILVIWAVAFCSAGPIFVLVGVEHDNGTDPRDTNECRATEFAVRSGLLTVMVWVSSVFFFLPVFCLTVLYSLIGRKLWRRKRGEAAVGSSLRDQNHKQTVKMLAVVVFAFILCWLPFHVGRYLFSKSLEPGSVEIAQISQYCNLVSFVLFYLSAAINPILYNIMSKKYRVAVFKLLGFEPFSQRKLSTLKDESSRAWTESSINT
T3 sequence (Q92847 whole entry): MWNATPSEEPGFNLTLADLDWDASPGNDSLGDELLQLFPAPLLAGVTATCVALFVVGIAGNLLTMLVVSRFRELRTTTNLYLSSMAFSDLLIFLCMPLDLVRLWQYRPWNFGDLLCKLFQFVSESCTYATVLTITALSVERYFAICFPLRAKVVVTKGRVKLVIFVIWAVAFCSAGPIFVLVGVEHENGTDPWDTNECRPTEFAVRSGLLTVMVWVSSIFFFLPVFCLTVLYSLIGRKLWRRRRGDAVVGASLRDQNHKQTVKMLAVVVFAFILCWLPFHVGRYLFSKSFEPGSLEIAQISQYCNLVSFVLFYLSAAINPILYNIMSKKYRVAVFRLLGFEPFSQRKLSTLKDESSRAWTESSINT
T2 sequence (O08725 whole entry, the tested form may be a part): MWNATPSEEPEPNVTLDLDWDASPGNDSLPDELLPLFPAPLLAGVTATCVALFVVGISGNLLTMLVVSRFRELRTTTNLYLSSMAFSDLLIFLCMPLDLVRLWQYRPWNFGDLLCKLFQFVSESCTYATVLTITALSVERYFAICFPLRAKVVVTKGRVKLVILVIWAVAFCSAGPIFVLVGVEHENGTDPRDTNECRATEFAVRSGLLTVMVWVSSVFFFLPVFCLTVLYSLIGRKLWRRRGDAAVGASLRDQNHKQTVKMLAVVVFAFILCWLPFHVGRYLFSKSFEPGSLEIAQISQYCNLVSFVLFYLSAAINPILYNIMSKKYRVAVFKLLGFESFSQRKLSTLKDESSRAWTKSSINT

| Compound | bioluminescence response ([1]; oocytes injected with cRNA of clones 7-3 and 28-18) | lowest Compound A concentration giving a response ([1]; swine Type I cRNA expressed in oocytes, responded to concentrations ranging from 1 mM to as low as 0.1 nM) | luminescent response (mobilization of intracellular calcium) [2] | lowest Compound A concentration giving a response [3] | Kd [4] | Bmax ([4]; clone 7-3 expressed transiently in COS-7 cells, saturable binding) |
| --- | --- | --- | --- | --- | --- | --- |
| CC(C)(N)C(=O)N[C@H](COCc1ccccc1)C(=O)N1CCC2(CC1)CN(S(C)(=O)=O)c1ccccc12 [Compound A] | positive bioluminescence response | 0.1 nM | luminescent responses | 0.1 nM |  |  |
| CC(C)(N)C(=O)N[C@H](COCc1ccccc1)C(=O)N1CCC2(CC1)CN([35S](C)(=O)=O)c1ccccc12 [^35S-Compound A] |  |  |  |  | ~200 pM | ~80 fmol/mg protein |
